Laboratory results from ChEMBL document CHEMBL3407349, “The discovery of Polo-like kinase 4 inhibitors: identification of (1R,2S).2-(3-((E).4-(((cis).2,6-dimethylmorpholino)methyl)styryl). 1H.indazol-6-yl)-5'-methoxyspiro[cyclopropane-1,3'-indolin]-2'-one (CFI-400945) as a potent, orally active antitumor agent” (J Med Chem, 2015).

Assays:
[1] = system: MDA-MB-468; assay: Growth inhibition of human MDA-MB-468 cells after 5 days by SRB assay; format: functional
[2] = system: MCF7; assay: Growth inhibition of human MCF7 cells after 5 days by SRB assay; format: functional
[3] = system: HCC1954; assay: Growth inhibition of human HCC1954 cells after 5 days by SRB assay; format: functional
[4] = system: MDA-MB-231; assay: Growth inhibition of human MDA-MB-231 cells after 5 days by SRB assay; format: functional
[5] = Growth inhibition of human HMEC cells after 5 days by SRB assay; format: cell-based; details: HMEC cells
[6] = target: T1, Cytochrome P450 1A2 (Homo sapiens, UniProt P05177); assay: Inhibition of CYP1A2 (unknown origin) by fluorescence assay; format: ADME
T1 sequence (P05177 whole entry): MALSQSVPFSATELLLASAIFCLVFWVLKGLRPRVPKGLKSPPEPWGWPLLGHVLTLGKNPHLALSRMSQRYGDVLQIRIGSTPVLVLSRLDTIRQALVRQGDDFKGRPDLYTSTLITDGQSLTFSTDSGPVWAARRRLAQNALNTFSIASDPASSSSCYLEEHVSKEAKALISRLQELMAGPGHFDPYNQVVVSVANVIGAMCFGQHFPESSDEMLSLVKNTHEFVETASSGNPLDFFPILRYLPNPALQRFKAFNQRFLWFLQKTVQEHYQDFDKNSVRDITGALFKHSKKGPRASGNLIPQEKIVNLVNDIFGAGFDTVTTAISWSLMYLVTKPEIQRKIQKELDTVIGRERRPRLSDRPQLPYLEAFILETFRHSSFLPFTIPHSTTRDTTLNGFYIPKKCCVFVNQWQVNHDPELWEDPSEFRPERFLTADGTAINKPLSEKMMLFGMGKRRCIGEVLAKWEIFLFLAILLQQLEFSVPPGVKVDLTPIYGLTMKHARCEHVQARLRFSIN

[7] = target: Cytochrome P450 2D6 (Homo sapiens, UniProt P10635); assay: Inhibition of CYP2D6 (unknown origin) by fluorescence assay; format: ADME
[8] = target: Cytochrome P450 2C9 (Homo sapiens, UniProt P11712); assay: Inhibition of CYP2C9 (unknown origin) by fluorescence assay
[9] = target: Cytochrome P450 2C19 (Homo sapiens, UniProt P33261); assay: Inhibition of CYP2C19 (unknown origin) by fluorescence assay
[10] = target: T2, Cytochrome P450 3A4 (Homo sapiens, UniProt P08684); assay: Inhibition of CYP3A4 (unknown origin) using DBF as substrate by fluorescence assay
[11] = target: T2, Cytochrome P450 3A4; assay: Inhibition of CYP3A4 (unknown origin) using BFC as substrate by fluorescence assay
[12] = Half life in mouse liver microsomes; details: liver microsomes
[13] = Half life in human liver microsomes; details: liver microsomes
[14] = Cmax in athymic CD1 nude mouse at 25 mg/kg, po by LC/MS/MS analysis; format: ADME, organism-based; set-up: dose 25 mg/kg, route oral; details: in vivo
[15] = AUC in athymic CD1 nude mouse at 25 mg/kg, po by LC/MS/MS analysis; format: ADME, organism-based; set-up: dose 25 mg/kg, route oral; details: plasma
[16] = target: T3, Serine/threonine-protein kinase PLK4 (Homo sapiens, UniProt O00444); assay: Inhibition of PLK4 (unknown origin) by ELISA
T3 sequence (O00444 whole entry): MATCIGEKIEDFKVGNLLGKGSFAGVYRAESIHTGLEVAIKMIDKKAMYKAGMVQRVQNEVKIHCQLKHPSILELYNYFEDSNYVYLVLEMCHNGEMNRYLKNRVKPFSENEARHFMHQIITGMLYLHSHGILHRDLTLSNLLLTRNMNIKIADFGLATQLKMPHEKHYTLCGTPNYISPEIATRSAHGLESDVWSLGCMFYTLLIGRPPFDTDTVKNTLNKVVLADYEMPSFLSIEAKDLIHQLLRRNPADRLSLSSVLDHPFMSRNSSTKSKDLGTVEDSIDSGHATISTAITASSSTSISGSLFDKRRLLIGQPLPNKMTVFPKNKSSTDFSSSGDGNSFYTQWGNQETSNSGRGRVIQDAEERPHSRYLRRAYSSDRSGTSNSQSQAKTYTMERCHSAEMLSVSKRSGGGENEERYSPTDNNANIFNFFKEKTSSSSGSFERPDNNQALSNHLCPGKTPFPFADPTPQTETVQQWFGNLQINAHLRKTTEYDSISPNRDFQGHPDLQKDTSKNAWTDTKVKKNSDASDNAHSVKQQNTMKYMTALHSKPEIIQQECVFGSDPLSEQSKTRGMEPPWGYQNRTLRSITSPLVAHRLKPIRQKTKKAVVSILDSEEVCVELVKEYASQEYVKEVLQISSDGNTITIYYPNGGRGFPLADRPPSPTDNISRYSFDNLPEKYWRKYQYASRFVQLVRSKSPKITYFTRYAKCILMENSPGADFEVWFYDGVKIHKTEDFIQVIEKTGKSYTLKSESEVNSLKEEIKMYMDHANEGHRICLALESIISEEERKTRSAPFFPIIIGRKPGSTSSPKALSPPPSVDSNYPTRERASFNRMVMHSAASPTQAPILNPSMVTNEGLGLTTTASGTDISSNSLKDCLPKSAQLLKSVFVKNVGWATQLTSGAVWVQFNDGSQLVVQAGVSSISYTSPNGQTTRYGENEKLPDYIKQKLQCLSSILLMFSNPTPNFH

[17] = Homo sapiens, MDA-MB-468, 120 h
[18] = Homo sapiens, MDA-MB-231, 120 h

T2 sequence (P08684 whole entry): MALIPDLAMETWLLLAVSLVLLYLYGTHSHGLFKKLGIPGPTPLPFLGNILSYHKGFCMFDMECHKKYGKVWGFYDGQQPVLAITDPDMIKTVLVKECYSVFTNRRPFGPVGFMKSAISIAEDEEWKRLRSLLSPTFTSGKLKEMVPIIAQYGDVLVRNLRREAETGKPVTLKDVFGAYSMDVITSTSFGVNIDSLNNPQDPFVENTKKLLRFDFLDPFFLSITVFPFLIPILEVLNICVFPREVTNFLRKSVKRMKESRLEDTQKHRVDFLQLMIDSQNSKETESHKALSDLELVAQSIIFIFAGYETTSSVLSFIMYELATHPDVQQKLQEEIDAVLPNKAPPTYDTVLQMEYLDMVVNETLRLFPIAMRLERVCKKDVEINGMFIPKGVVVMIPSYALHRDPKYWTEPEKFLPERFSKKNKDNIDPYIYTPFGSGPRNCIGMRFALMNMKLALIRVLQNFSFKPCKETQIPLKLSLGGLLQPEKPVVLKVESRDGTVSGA
Chain of Cytochrome P450 2C19 (P33261 whole entry): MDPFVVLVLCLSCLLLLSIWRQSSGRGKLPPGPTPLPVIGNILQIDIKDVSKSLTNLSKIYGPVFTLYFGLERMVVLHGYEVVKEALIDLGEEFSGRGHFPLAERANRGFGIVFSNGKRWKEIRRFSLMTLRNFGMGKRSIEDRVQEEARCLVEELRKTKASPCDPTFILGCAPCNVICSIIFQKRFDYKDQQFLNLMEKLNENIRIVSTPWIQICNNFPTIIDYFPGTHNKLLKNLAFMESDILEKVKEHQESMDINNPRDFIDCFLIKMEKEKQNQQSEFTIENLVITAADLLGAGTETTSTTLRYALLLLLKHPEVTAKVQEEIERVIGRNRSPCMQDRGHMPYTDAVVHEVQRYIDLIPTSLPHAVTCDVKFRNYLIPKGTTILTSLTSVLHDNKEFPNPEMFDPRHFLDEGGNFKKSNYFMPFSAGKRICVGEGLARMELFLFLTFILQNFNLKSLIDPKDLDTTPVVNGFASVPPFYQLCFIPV
Chain of Cytochrome P450 2D6 (P10635 whole entry): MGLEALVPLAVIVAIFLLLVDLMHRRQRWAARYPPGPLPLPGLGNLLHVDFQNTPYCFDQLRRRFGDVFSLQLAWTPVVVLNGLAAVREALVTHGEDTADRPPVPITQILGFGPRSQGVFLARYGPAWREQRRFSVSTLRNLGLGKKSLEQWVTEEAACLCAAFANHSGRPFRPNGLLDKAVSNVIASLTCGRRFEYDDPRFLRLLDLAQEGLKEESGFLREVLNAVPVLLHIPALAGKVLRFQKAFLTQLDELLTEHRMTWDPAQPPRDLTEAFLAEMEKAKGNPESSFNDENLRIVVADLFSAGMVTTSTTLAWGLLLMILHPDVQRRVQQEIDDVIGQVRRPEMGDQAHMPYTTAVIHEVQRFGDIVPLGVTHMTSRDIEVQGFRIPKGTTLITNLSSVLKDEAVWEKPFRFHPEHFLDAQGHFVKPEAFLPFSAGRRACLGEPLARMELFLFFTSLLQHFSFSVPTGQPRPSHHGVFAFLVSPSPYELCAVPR
Chain of Cytochrome P450 2C9 (P11712 whole entry): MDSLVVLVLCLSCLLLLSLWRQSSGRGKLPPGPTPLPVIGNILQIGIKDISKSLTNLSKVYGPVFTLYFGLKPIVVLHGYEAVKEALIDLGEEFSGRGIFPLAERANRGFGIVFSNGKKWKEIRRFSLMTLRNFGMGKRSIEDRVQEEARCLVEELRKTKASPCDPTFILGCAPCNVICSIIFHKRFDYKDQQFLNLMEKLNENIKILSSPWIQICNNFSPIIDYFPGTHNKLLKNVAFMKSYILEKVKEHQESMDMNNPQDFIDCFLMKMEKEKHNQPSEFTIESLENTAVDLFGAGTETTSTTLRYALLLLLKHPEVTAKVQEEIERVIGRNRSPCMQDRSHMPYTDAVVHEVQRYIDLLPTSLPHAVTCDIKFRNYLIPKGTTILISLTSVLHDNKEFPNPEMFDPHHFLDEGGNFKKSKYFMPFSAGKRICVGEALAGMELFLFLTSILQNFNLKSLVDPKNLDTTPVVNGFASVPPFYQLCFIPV

GI50 [1, 17] [nM]	GI50 ([2]; Homo sapiens, MCF7, 120 h) [nM]	GI50 ([3]; Homo sapiens, HCC1954, 120 h) [µM]	GI50 [4, 18] [nM]	SMILES	GI50 at 120 h [5] [µM]	also measured
				COc1ccc2c(c1)[C@]1(C[C@H]1c1ccc3c(/C=C/c4ccc(CN5CCOCC5)cc4)n[nH]c3c1)C(=O)N2 (racemic)		GI50 [1]: 6 nM; GI50 [2]: 10 nM; GI50 [3]: 7.3 µM; GI50 [4]: 14000 nM
< 1	< 1	5	1600	COc1ccc2c(c1)[C@]1(C[C@H]1c1ccc3c(/C=C/c4ccc(CN5CCCCC5)cc4)n[nH]c3c1)C(=O)N2	50	inhibition (INH) [6]: Not Active; inhibition (INH) [7]: Not Active; IC50 [8]: 3.4 µM; IC50 [9]: 1400 nM; IC50 [10]: 5.4 µM; IC50 [11]: > 1000 nM; half-life [12]: 40 min; half-life [13]: 49 min; Cmax [14]: 510 ng/mL; AUC [15]: 1300 ng·h/mL
10	2500	1.3	500	C[C@@H]1CN(Cc2ccc(/C=C/c3n[nH]c4cc([C@@H]5C[C@@]56C(=O)Nc5ccccc56)ccc34)cc2)C[C@H](C)N1C		IC50 [16]: 0.64 nM
61	170	0.053	4100	O=C1Nc2ccccc2[C@]12C[C@H]2c1ccc2c(/C=C/c3ccc(CN4CC5CCC(C4)O5)cc3)n[nH]c2c1		IC50 [16]: 5.2 nM
2	1000	1.8	3000	O=C1Nc2ccccc2[C@]12C[C@H]2c1ccc2c(/C=C/c3ccc(CN4CCCOCC4)cc3)n[nH]c2c1		
< 1	370	0.026	250	O=C1Nc2ccccc2[C@]12C[C@H]2c1ccc2c(/C=C/c3ccc(CN4CCCC4)cc3)n[nH]c2c1	3.6	
< 1	< 1	5	2200	O=C1Nc2ccccc2[C@]12C[C@H]2c1ccc2c(/C=C/c3ccc(CN4CCCCC4)cc3)n[nH]c2c1	20	
60	2000	7.5	1000	O=C1Nc2ccccc2[C@]12C[C@H]2c1ccc2c(/C=C/c3cccnc3)n[nH]c2c1	4.4	
< 1	0.1	5	2800	COc1ccc2c(c1)[C@]1(C[C@H]1c1ccc3c(/C=C/c4ccc(CN(C)C)cc4)n[nH]c3c1)C(=O)N2	41	inhibition (INH) [6]: Not Active; inhibition (INH) [7]: Not Active; IC50 [8]: 3.5 µM; IC50 [9]: 2000 nM; IC50 [10]: 7.5 µM; half-life [12]: 22 min; half-life [13]: 36 min; Cmax [14]: 300 ng/mL; AUC [15]: 640 ng·h/mL
130	350	1.6	2200	O=C1Nc2ccccc2[C@]12C[C@H]2c1ccc2c(/C=C/c3cccc(CN4CCOCC4)c3)n[nH]c2c1	50	
